The results in this text go back to ChEMBL document CHEMBL4152183, “Anti-inflammatory effects of flavonoids in neurodegenerative disorders” (Eur J Med Chem, 2018).

This experiment concerns BV-2. As to the kind of experiment: Antiinflammatory activity in mouse BV2 cells assessed as inhibition of LPS-induced nitric oxide production pretreated for 1 hr followed by LPS addition and measured after 24 hrs by Griess assay. It counts as functional, cell-based. (Griess reagent forms a coloured azo dye with nitrite.)

Consider `O=C(/C=C/c1ccc(O)c(O)c1)c1ccc(O)cc1O` [BUTEIN], for which the IC50 (as a rule, the point on the concentration scale where inhibition reaches its midpoint) was found to be 10.9 µM. For `O=c1c(O)c(-c2ccc(O)c(O)c2)oc2cc(O)ccc12` [FISETIN], the IC50 was found to be 13.5 µM.
